Results: US20090275085A1, “Enzyme for Obtaining Prebiotic Oligosaccharides” (CONSEJO SUPERIOR DE INVESTIGACIONES CIENTIFICAS, priority 2004, published 2009)

Legend:
[1] = system: purified X. dendrorhous enzyme (F-3); experiment: Glycosyltransferase activity: incubating maltose (240 g/l) with the purified X. dendrorhous enzyme (F-3), HPLC analysis; format: biochemical, Xanthophyllomyces dendrorhous; conditions: for composition of the system: after 288 hours, maltose 240 g/l, 0.7 μg α-glucosidase, pH 5.4, 40° C., 200 rpm; for Composition of the reaction mixture: 240 g maltose/l, 0.2 M sodium acetate pH 5.4, 40° C., 150 rpm
Procedure: 0.7 μg of α-glucosidase from the pure solution of α-glucosidase corresponding to fraction 3 of TABLE 2 were added. […] Aliquots were extracted at different times and incubated for 5 minutes at 80° C. to inactivate the enzyme. They were diluted to 1:4 (v/v) with water, centrifuged for 5 minutes at 6000 rpm in an Eppendorf tube with a 0.45 μam filter and analyzed by HPLC liquid chromatography.

[2] = system: X. dendrorhous extracellular fraction α-glucosidase; experiment: α-glucosidase activity of the X. dendrorhous extracellular (cell-free, F-0) fraction on different glucose polymers, glucose release by glucose oxidase-peroxidase; format: biochemical, Xanthophyllomyces dendrorhous; conditions: for α-glucosidase activity detected on substrate: cell-free fraction (F-0); for Specific activity: X. dendrorhous extracellular fraction (F-0), release of glucose
Procedure: The production of α-glucosidase activity was analyzed in X. dendrorhous cultures grown in minimal medium for yeasts: 0.7% YNB (Yeast Nitrogen Base w/o Amino acids, DIFCO) (w/v), 2% carbon source. The cultures were carried out in glass flasks incubated at 24° C. and with constant stirring at 160 rpm.
(§1) The cell-free fraction was obtained by centrifugation (F-0) and α-glucosidase activity in this fraction was tested, assessing the release of glucose on different substrates. A […] test and standard methodology were used. The released glucose was quantified using the glucose oxidase-peroxidase coupled reaction: 0.4 ml of the solution to be assessed was mixed with 0.1 ml of A:B solution (20:1) (A: 0.85 U/ml glucose oxidase, 0.40 U/ml peroxidase in sodium phosphate buffer pH 5; B: 0.6% O-dianisidine). It was incubated for 30 minutes at 37° C. and spectrophotometrically quantified at 450 nm. A standard glucose curve (1 to 100 μg/ml) was used. The α-glucosidase activity unit is defined as the amount of enzyme required to release 20 μg/ml of glucose under the described conditions.

[3] = system: X. dendrorhous α-glucosidase, enzyme purified to homogeneity (F-3); experiment: α-glucosidase (hydrolytic) activity of the X. dendrorhous F-3 fraction on different substrates; format: biochemical, Xanthophyllomyces dendrorhous; conditions: for hydrolytic activity observed on substrate: enzyme purified to homogeneity (F-3); for Specific activity: F-3 fraction, purified protein, 1% concentration of substrate
Procedure: as §1
The hydrolytic activity of the enzyme purified to homogeneity (F-3) following the described process was tested on different substrates.

[4] = target: X. dendrorhous α-glucosidase (purified enzyme) (Phaffia rhodozyma, UniProt A0A0U2M4R6); experiment: Kinetic constants of X. dendrorhous α-glucosidase glycosylhydrolase activity; format: biochemical, Xanthophyllomyces dendrorhous; conditions: 30 minutes, 100 ng of enzyme; starch supplied by Avebe, 8100 Da
Chain of X. dendrorhous α-glucosidase (purified enzyme) (A0A0U2M4R6 entry or part of it): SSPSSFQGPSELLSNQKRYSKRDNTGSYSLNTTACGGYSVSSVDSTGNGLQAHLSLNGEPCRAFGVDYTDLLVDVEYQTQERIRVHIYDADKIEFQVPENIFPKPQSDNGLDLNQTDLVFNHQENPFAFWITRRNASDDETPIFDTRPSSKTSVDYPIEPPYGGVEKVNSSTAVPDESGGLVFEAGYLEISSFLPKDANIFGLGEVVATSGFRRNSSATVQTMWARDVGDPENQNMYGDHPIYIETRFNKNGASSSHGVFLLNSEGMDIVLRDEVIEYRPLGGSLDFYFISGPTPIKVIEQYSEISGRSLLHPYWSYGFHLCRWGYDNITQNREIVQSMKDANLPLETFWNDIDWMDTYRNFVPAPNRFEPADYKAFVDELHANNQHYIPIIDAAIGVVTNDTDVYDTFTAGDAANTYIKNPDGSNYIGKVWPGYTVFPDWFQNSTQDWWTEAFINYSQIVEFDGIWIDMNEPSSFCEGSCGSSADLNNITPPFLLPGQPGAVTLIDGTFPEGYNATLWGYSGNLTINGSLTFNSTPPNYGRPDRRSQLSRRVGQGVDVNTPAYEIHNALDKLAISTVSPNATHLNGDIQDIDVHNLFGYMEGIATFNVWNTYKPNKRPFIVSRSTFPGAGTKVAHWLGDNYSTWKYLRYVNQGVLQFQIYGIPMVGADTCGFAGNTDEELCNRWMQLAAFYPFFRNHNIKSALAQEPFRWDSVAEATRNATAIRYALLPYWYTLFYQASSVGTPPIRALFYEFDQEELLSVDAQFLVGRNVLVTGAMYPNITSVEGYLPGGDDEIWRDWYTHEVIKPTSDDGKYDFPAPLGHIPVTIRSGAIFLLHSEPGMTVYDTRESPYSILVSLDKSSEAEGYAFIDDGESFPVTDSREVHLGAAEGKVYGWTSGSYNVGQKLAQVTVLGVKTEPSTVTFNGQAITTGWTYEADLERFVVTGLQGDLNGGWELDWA
Procedure: The tests were carried out in 30 minutes and with 100 ng of enzyme for each reaction. The molecular weight of the starch, supplied by Avebe, is 8100 Da.

X. dendrorhous MYA-131 = experiment: Degradation of starch in the medium of an X. dendrorhous culture, quantified with Lugol's iodine; format: cell-based, Xanthophyllomyces dendrorhous
Procedure: X. dendrorhous MYA-131 grown in 100 ml of minimal medium with starch (MMS): 0.7% YNB (Yeast Nitrogen Base w/o Amino acids, DiFCO) (w/v), 2% starch (w/v), DIFCO) was cultured to produce α-glucosidase, and the culture continued for 150 hours. Cell growth was carried out and assessed as in the previous example. The stationary phase was reached after 75 hours of growth, at 3.4 ODU660. The cell-free fraction was obtained every 5-7 hours as in EXAMPLE 1.
To that end, 0.05 ml of the cell-free fraction was mixed with 0.05 ml of 50 mM sodium phosphate buffer, pH 5.5 0.1 ml of Lugol's iodine and 2.5 ml of water were added to 0.025 ml of this mixture. The polysaccharide was spectrophotometrically quantified at 595 nm using a standard starch curve (1-10 mg/ml). The 100% starch value was that assessed in the initial culture medium which was used to carry out the inoculum. By using this methodology, a decrease of the starch in the extracellular medium for the first 30 hours of culture was not observed. 10, 20, 40 and 60% reductions of the polysaccharide concentration were obtained at 50, 60, 70 and 80 hours of culture, respectively. The last value, 60%, remained constant during prolonged growths of up to 300 hours.

Row | Compound | composition of the system [1] | Composition of the reaction mixture ([1]; reaction time 27 h) | Composition of the reaction mixture ([1]; reaction time 117 h) | Composition of the reaction mixture ([1]; reaction time 143 h) | Composition of the reaction mixture ([1]; reaction time 216 h) | Composition of the reaction mixture ([1]; reaction time 288 h) | hydrolytic activity observed on substrate [3] | Specific activity [2] | Specific activity [3] | Vmax [4] | also measured
1 | OC[C@H]1O[C@H](OC[C@H]2O[C@H](O[C@H]3[C@H](O)[C@@H](O)[C@@H](O[C@H]4[C@H](O)[C@@H](O)[C@@H](O)O[C@@H]4CO)O[C@@H]3CO)[C@H](O)[C@@H](O)[C@@H]2O)[C@H](O)[C@@H](O)[C@@H]1O [compound 7, α-D-Glu-(1→6)-α-D-Glu-(1→4)-α-D-Glu-(1→4)-α-D-Glu] | 17.6 g/L | 0 grams/liter | 8.8 grams/liter | 10.1 grams/liter | 14.5 grams/liter | 17.6 grams/liter | – | – | – | – | –
2 | OC[C@H]1O[C@H](OC[C@H]2OC(O)[C@H](O)[C@@H](O)[C@@H]2O)[C@H](O)[C@@H](O)[C@@H]1O (stereo partly shown) [isomaltose] | 14.4 g/L | 0 grams/liter | 12.7 grams/liter | 12.4 grams/liter | 13.1 grams/liter | 14.4 grams/liter | No activity | – | – | – | α-glucosidase activity detected on substrate [2]: not detected
3 | OC[C@H]1O[C@H](OC[C@H]2O[C@H](OC[C@H]3OC(O)[C@H](O)[C@@H](O)[C@@H]3O)[C@H](O)[C@@H](O)[C@@H]2O)[C@H](O)[C@@H](O)[C@@H]1O (stereo partly shown) [isomaltotriose] | – | – | – | – | – | – | No activity | – | – | – | α-glucosidase activity detected on substrate [2]: not detected
4 | OC[C@H]1O[C@H](O[C@H]2[C@H](O)[C@@H](O)[C@@H](O[C@H]3[C@H](O)[C@@H](O)[C@@H](O[C@H]4[C@H](O)[C@@H](O)[C@@H](O[C@H]5[C@H](O)[C@@H](O)[C@@H](O[C@H]6[C@H](O)[C@@H](O)[C@@H](O[C@H]7[C@H](O)[C@@H](O)C(O)O[C@@H]7CO)O[C@@H]6CO)O[C@@H]5CO)O[C@@H]4CO)O[C@@H]3CO)O[C@@H]2CO)[C@H](O)[C@@H](O)[C@@H]1O (stereo partly shown) [maltoheptose] | – | – | – | – | – | – | – | 24 U/μg | 997 U/μg | 15 μg glucose min^−1 | –
5 | OC[C@H]1O[C@H](O[C@H]2[C@H](O)[C@@H](O)[C@@H](O[C@H]3[C@H](O)[C@@H](O)[C@@H](O[C@H]4[C@H](O)[C@@H](O)C(O)O[C@@H]4CO)O[C@@H]3CO)O[C@@H]2CO)[C@H](O)[C@@H](O)[C@@H]1O (stereo partly shown) [maltotetraose] | 15.4 g/L | 0 grams/liter | 11.0 grams/liter | 12.4 grams/liter | 15.1 grams/liter | 15.4 grams/liter | – | – | – | – | –
6 | OC[C@H]1O[C@H](O[C@H]2[C@H](O)[C@@H](O)[C@@H](O[C@H]3[C@H](O)[C@@H](O)C(O)O[C@@H]3CO)O[C@@H]2CO)[C@H](O)[C@@H](O)[C@@H]1O (stereo partly shown) [maltotriose] | 35.9 g/L | 26.3 grams/liter | 42.6 grams/liter | 42.8 grams/liter | 39.3 grams/liter | 35.9 grams/liter | – | 18 U/μg | 647 U/μg | 12 μg glucose min^−1 | –
7 | OC[C@H]1O[C@H](OC[C@H]2O[C@H](O[C@H]3[C@H](O)[C@@H](O)C(O)O[C@@H]3CO)[C@H](O)[C@@H](O)[C@@H]2O)[C@H](O)[C@@H](O)[C@@H]1O (stereo partly shown) [panose] | 21.2 g/L | 5.7 grams/liter | 14.7 grams/liter | 16.1 grams/liter | 18.9 grams/liter | 21.2 grams/liter | – | – | – | – | –
8 | dextran | – | – | – | – | – | – | No activity | – | – | – | α-glucosidase activity detected on substrate [2]: not detected
9 | glycogen | – | – | – | – | – | – | – | – | 197 U/μg | – | –
10 | maltodextrin | – | – | – | – | – | – | – | 21 U/μg | 747 U/μg | – | –
11 | maltose | 69.2 g/L | 183.4 grams/liter | 103.0 grams/liter | 94.4 grams/liter | 78.1 grams/liter | 69.2 grams/liter | – | 30 U/μg | 1172 U/μg | 23 μg glucose min^−1 | –
12 | pullulan | – | – | – | – | – | – | No activity | – | – | – | –
13 | starch | – | – | – | – | – | – | – | 23 U/μg | – | 4.29 μg glucose min^−1 | Kcat [4]: 1.43 s⁻¹; Km [4]: 880 µM; reduction of the polysaccharide concentration (X. dendrorhous MYA-131; 50 hours of culture): 10%; reduction of the polysaccharide concentration (X. dendrorhous MYA-131; 60 hours of culture): 20%; reduction of the polysaccharide concentration (X. dendrorhous MYA-131; 70 hours of culture): 40%; reduction of the polysaccharide concentration (X. dendrorhous MYA-131; 80 hours of culture, remained constant up to 300 hours): 60%; decrease of the starch in the extracellular medium (X. dendrorhous MYA-131; first 30 hours of culture): not observed
